The text below walks through data of US9909125B2, “Molecular targets for selective eradication of senescent cells” (Everon Biosciences, Inc., priority 2013, dated 2018).

The subject of this data set is senescent human neonatal dermal fibroblasts. The data set is described as follows: Crystal violet staining of shRNA-transduced senescent fibroblasts (FIG. 4). The class given is cell-based. Particulars: lentiviral shRNA, puromycin 72 hours, crystal violet at 20 days; senescence by bleomycin 10 μg/ml 24 hr + 10 days. The protocol:
FIG. 4. Effect of selected shRNAs on viability of proliferating and senescent human neonatal dermal fibroblasts. Senescence was induced by treatment with bleomycin (10 μg/ml) for 24 hr followed by incubation for 10 days to establish senescent phenotype. (1) The proliferating and senescent cells were transduced with lentiviruses carrying both shRNA and mCherry constructs. Transduced cells were selected with puromycin for 72 hours and the presence of shRNA construct was confirmed by microscopic detection of mCherry fluorescence (see example of mCherry fluorescence in FIG. 4, panel 1). In 8 days for proliferating and 20 days for senescent cells, the cells were stained with crystal violet dye. The images of the live/dead cells were obtain using a digital camera (panels 2-4).
To confirm universal activity of identified target genes across different senescence models 60 candidate shRNA identified in all primary screenings were transduced to a secondary models of senescence: human diploid dermal fibroblasts induced to senescence by bleomycin treatment (DNA-damage induction) or senescence was induced by replicative exhaustion (replicative senescence).

For the substance “FGF1: shRNA coding sequence targeting FGF1 (DNA CCTGATAACAAGTAAGGATATGTTAATATTCATAGCATATCCTTGCTTGTTATCAGG)”, the “effect on viability of senescent cells” value is “critical for viability of senescent cells”.
For “POU5F1: shRNA coding sequence targeting POU5F1 (DNA TCATTCACTAAGGAAGGAATTGTTAATATTCATAGCAATTCCTTCCTTAGTGAATGA)”, the “effect on viability of senescent cells” value is “critical for viability of senescent cells”.
